Literature values, collected in patent publication US20100095963A1, “PHARMACEUTICAL COMPOSITIONS” (Schering Corporation, priority 2002, published 2010).

How the values were obtained:
[1] = not given; remark: listed apart in the source

- solubility in acetone (acetone): soluble
- solubility in chloroform (chloroform): soluble
- solubility in ethanol (ethanol): slightly soluble
- solubility in isopropanol (isopropanol): slightly soluble
- solubility in methanol (methanol): slightly soluble
- solubility in tetrahydrofuran (tetrahydrofuran): freely soluble
- solubility in water (water): practically insoluble
- partition coefficient between octanol and water [1]: greater than 5000
Structure (SMILES): C[C@@H]1C[C@H]2[C@@H]3CCC4=CC(=O)C=C[C@]4(C)[C@@]3(Cl)[C@@H](O)C[C@]2(C)[C@@]1(OC(=O)c1ccco1)C(=O)CCl [Mometasone furoate, 9,21-Dichloro-11(beta),17-dihydroxy-16(alpha)-methylpregna-1,4-diene-3,20-dione 17-(2 furoate)]
